Assay results as given in paper PMC6792352, “Limited Chemical Structural Diversity Found to Modulate Thyroid Hormone Receptor in the Tox21 Chemical Library” (Environmental Health Perspectives, 2019).
Where a name gives a salt, the structure may show the parent alone. Read-outs that look alike come from different tables or passages of the source.

Key:
[1] = biological target: T1, TRα ligand-binding domain (Homo sapiens, UniProt P10827); test: TRa-coa LanthaScreen TR-FRET coactivator (SRC-2 peptide) recruitment, agonist (TOX21_TRA_COA_Agonist_Followup_ratio, aeid 2230); type: biochemical; conditions: for AC50 / TRa-coa hitc: agonist; for AC50: read-out: TRa-coa AC50; for TRa-coa hitc: hit call from tcpl; for Emax: read-out: EMax (% of Control) tra-coa-agonist-followup-1
T1 construct: the receptor LBDs expressed as glutathione S-transferase (GST) fusion proteins; purchased
T1 sequence (P10827 163-410 isoform P10827-2 limits assumed, other chains not shown): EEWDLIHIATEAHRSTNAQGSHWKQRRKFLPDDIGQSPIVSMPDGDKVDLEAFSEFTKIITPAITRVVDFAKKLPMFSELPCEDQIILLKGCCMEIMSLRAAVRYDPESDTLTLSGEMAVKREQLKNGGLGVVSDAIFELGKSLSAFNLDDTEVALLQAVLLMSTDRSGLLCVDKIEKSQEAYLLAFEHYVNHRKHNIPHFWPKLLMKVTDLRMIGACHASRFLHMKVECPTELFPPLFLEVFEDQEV

[2] = biological target: T2, human TRβ ligand-binding domain (Homo sapiens, UniProt P10828); test: TRb-bla agonist mammalian one-hybrid beta-lactamase assay (TOX21_TRB_BLA_Agonist_Followup_ratio, aeid 2236); type: cell-based; parameters: host or cells: GeneBLAzer UAS-bla HEK 293T; conditions: for AC50 / TRb-bla hitc: agonist; for AC50: read-out: TRb-bla AC50; for TRb-bla hitc: hit call from tcpl; for Emax: read-out: EMax (% of Control) trb-bla-agonist-followup-1
T2 sequence (P10828 217-461 limits assumed): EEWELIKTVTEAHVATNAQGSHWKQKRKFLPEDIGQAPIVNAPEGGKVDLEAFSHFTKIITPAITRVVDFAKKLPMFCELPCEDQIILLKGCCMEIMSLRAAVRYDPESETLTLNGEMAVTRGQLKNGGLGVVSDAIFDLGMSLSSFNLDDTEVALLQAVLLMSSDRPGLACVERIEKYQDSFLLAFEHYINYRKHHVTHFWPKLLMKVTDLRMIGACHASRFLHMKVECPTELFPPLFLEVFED

in vitro = conditions: rat, gh3-tre-luc cells, AC50 (uM) modified / 1000
GH3-TRE-Luc cell line [3] = test: GH3-TRE-Via cell viability, CellTiter-Fluor (TOX21_TR_LUC_GH3_Antagonist_viability, aeid 805); conditions: for resp_max GH3-TRE-Via: Table S8
[4] = biological target: T2, human TRβ ligand-binding domain; test: TRb-coa LanthaScreen TR-FRET coactivator (SRC-2 peptide) recruitment, agonist (TOX21_TRB_COA_Agonist_Followup_ratio, aeid 2244); type: biochemical; parameters: host or cells: GeneBLAzer UAS-bla HEK 293T; conditions: for AC50 / TRb-coa hitc: agonist; for AC50: read-out: TRb-coa AC50; for TRb-coa hitc: hit call from tcpl; for Emax: read-out: EMax (% of Control) trb-coa-agonist-followup-1
[5] = system: thyroid hormone receptor (endogenous TRα and TRβ); test: GH3-TRE-Ag-Followup confirmation (TOX21_TR_LUC_GH3_Agonist_Followup, aeid 2226); type: cell-based, rat; conditions: for GH3-TRE-Ag-Followup hitc: hit call from tcpl; for AC50: read-out: GH3-TRE-Ag-Followup AC50
GH3-TRE-Luc cell line [6] = system: GH3-TRE-Luc cell line
[7] = system: thyroid hormone receptor (TR); test: Classification of TR actives across characterization assays (TR-Ag / RXR-Ag; TR model binary); parameters: key to Categorization Code: FP, false positive; conditions: TR agonist characterization
Procedure, shortened: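 GH3-TRE qHTS agonist, antagonist and viability modes over 8,305 compounds; 84 candidates rescreened in GH3-TRE-Ag, TRβ- and RXRα-UAS-bla HEK 293T one-hybrid assays, HEK293T viability, and TRα/TRβ coactivator recruitment. Actives classified binary after removing pharmaceuticals.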

[8] = system: thyroid hormone receptor (endogenous TRα and TRβ); test: GH3-TRE-Ag primary qHTS, luciferase reporter, agonist mode (TOX21_TR_LUC_GH3_Agonist, aeid 803); type: cell-based, rat; conditions: for GH3-TRE-Ag AC50 hitc: hit call from tcpl; for AC50: read-out: GH3-TRE-Ag AC50
[9] = system: Tox21 cell viability assays (different cell types); test: Global cytotoxicity: eighteen Tox21 cell viability assays; type: cell-based
human RXRα = biological target: T3, human RXRα (Homo sapiens, UniProt P19793); test: RXRa-bla-Ag mammalian one-hybrid beta-lactamase assay (TOX21_TR_RXR_BLA_Agonist_Followup_ratio, aeid 2253); type: cell-based; conditions: for tr-followup-rxr-bla-agonist-1 hitc: hit call from tcpl; for Emax: read-out: EMax (% of Control) tr-followup-rxr-bla-agonist-1; for AC50: read-out: tr-followup-rxr-bla-agonist-1 AC50
T3 construct: host or cells: GeneBLAzer UAS-bla HEK 293T
T3 sequence (P19793 227-458 limits assumed): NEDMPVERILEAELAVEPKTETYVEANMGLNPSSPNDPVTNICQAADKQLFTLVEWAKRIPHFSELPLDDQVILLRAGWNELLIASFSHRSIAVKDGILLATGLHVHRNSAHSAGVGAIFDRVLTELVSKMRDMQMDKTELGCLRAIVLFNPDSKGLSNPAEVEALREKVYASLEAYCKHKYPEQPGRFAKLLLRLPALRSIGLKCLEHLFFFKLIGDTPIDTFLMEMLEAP

[10] = system: thyroid hormone receptor (endogenous TRα and TRβ); test: GH3-TRE-Antag primary qHTS, luciferase reporter, antagonist mode with 1 nM T3 (TOX21_TR_LUC_GH3_Antagonist, aeid 804); type: cell-based, rat; conditions: for resp_max GH3-TRE-Antag: Table S8
[11] = Rattus norvegicus, read-out: TR_LUC_GH3_Antagonist_viability AC50 (uM)

SMILES | AC50 [1] | TRa-coa hitc [1] | Emax [1] | AC50 [2] | TRb-bla hitc [2] | Emax [2] | CC50 at 24 h (in vitro) | AC50 (GH3-TRE-Luc cell line [3]; [11]) | TRb-coa hitc [4] | EMax (% of Control) gh3-tre-agonist-followup-1_agonist [5] | GH3-TRE-Ag-Followup hitc [5] | TR_LUC_GH3_Antagonist_viability hitc (GH3-TRE-Luc cell line [6]; rat, 24 h) | Categorization Code [7] | EMax (% of Control) gh3-tre-agonist [8] | GH3-TRE-Ag AC50 hitc [8] | GLOBAL CYTOTOXICITY cytotox.median [9] | GLOBAL CYTOTOXICITY cytotox.number_Active [9] | tr-followup-rxr-bla-agonist-1 hitc (human RXRα) | Emax (human RXRα) | AC50 (human RXRα) | further results
O=c1[nH]cnc2c1ncn2[C@H]1CC[C@@H](CO)O1 [2',3'-Dideoxyinosine] | > 92 µM | 0 | -0.5% | 3.46 µM | 1 | 74.4% | > 100 µM | > 92 µM | 0 | 78.5 % of Control | 1 | 0 | FP | 1.6 % of Control | 0 | >92 | 0 | 0 | -0.6% | > 92 µM | AC50 [4]: > 92 µM; Emax [4]: -0.448%; AC50 [5]: 3.46 µM; AC50 [8]: > 92 µM
N[C@@H](Cc1ccc(Oc2cc(I)c(O)c(I)c2)c(I)c1)C(=O)O [3,3',5'-Triiodo-L-thyronine] | – | 1 | – | – | 1 | – | – | – | 1 | 87.2 % of Control | 1 | – | TR-Ag | 111.6 % of Control | 1 | >92 | 0 | 0 | – | > 92 µM | EMax (% of Control) tra-coa-agonist-followup-1 [1]: 152.6 % of Control; EMax (% of Control) trb-bla-agonist-followup-1 [2]: 93.8 % of Control; AC50 (GH3-TRE-Luc cell line [3]; read-out: TR_LUC_GH3_Antagonist_viability AC50): > 92 µM; EMax (% of Control) trb-coa-agonist-followup-1 [4]: 117.6 % of Control; AC50 [5]: 0.537 µM; TR_LUC_GH3_Antagonist_viability hitc (GH3-TRE-Luc cell line [6]): 0; EMax (% of Control) tr-followup-rxr-bla-agonist-1 (human RXRα): 17.4 % of Control
CCc1cc(OC)c(C[C@@H](C)N)cc1OC [(-)-2,5-Dimethoxy-4-ethylamphetamine hydrochloride] | – | – | – | – | – | – | – | – | – | – | – | – | – | – | – | – | – | – | – | – | resp_max GH3-TRE-Via (GH3-TRE-Luc cell line [3]): 62.2; resp_max GH3-TRE-Antag [10]: 85.7
CCN(CC)C(=O)N[C@@H]1C=C2c3cccc4[nH]cc(c34)C[C@@H]2N(C)C1 [(-)-(5S,8R)-Lisuride] | – | – | – | – | – | – | – | – | – | – | – | – | – | – | – | – | – | – | – | – | resp_max GH3-TRE-Via (GH3-TRE-Luc cell line [3]): 42.3; resp_max GH3-TRE-Antag [10]: 34.7
NCC(=O)CCC(=O)O [Aminolevulinic acid hydrochloride] | > 92 µM | 0 | 1.1% | > 92 µM | 0 | 12.7% | > 50 µM | > 92 µM | 0 | 43.5 % of Control | 1 | 0 | FP | 29.9 % of Control | 1 | >92 | 0 | 0 | 13% | > 92 µM | AC50 [4]: > 92 µM; Emax [4]: 3.6%; AC50 [5]: 22.5 µM
CC(C)(c1ccc(O)cc1)c1ccc(O)cc1 [BPA, bisphenol A] | – | – | – | – | – | – | > 90 µM | – | – | – | – | – | – | – | – | – | – | – | – | – | activity in GH3-TRE antagonist mode assay [10]: active in suppressing the TR transactivation assay
COc1ccc(OC)c(C(O)C(C)N)c1 (centres unmarked) [Methoxamine hydrochloride] | > 92 µM | 0 | 0.282% | > 92 µM | 0 | 7.9% | > 50 µM | > 92 µM | 0 | 29.2 % of Control | 1 | 0 | FP | 25.7 % of Control | 1 | >92 | 0 | 0 | -0.7% | > 92 µM | AC50 [4]: > 92 µM; Emax [4]: 1.5%; AC50 [5]: 23.4 µM
Nc1ccc(S(=O)(=O)Nc2nccs2)cc1 [Sulfathiazole] | – | – | – | – | – | – | > 50 µM | > 92 µM | – | 19.5 % of Control | 0 | 0 | FP | 1.9 % of Control | 0 | >92 | 0 | 0 | 30% | > 92 µM | AC50 [8]: > 92 µM
C[C@H](CCC(=O)NCC(=O)O)[C@H]1CC[C@H]2[C@@H]3[C@H](O)C[C@@H]4C[C@H](O)CC[C@]4(C)[C@H]3C[C@H](O)[C@]12C [glycocholic acid] | > 92 µM | 0 | -0.137% | > 92 µM | 0 | 14.8% | – | > 92 µM | 0 | 34.6 % of Control | 0 | 0 | Equivocal RXR-Ag | 27.2 % of Control | 1 | – | 0 | 0 | -1.3% | > 92 µM | AC50 [4]: > 92 µM; Emax [4]: -0.225%; activity in GH3-TRE agonist assay [8]: active; GLOBAL CYTOTOXICITY cytotox.median ([9]; median over Tox21 viability assays): >92
